Measured values: US20100204111A1 (priority 2007, published 2010)
Bridges are numbered along the chain shown (N, C = ends). Where no end group is shown, it is not given here. [ ]: non-standard residue; d: D form. Nle = CCCC[C@H](N)C(=O)O

Columns and labels:
[1] = system: HCMV strain AD169; type: cell-based; settings: MRC-5 cells
[2] = system: Interleukin-5 (IL-5); assay: Th1/Th2 Cytokine Profiling Assay: IL-5; type: cell-based, Balb/c mice; settings: 10 micrograms per ml; Ovalbumin-restimulated Balb/c spleen cells; 72 hours
Experimental: (§1) On day 50, spleens of the mice were harvested (3 weeks after last boost with Ovalbumin). […] Thereafter, additional Ovalbumin was added to the cells at 10 micrograms/ml for in vitro restimulation of the cells. 72 hours later, cell supernatants were harvested and assayed using the Becton Dickinson Mouse Th1/Th2 Cytokine CBA Kit. This kit can be used to measure Interleukin-2 (IL-2), Interleukin-4 (IL-4), Interleukin-5 (IL-5), Interferon-γ (IFN-γ), and Tumor Necrosis Factor-α (TNF-α) protein levels in a single sample.

[3] = system: Primary Human endothelial cells (HUVEC); assay: Endothelial Cell Migration Assay; type: cell-based; settings: 10 micrograms per ml, 22 hours, combination peptide 1:peptide 2 0.95 mole:1.05 mole
Experimental: Primary Human endothelial cells (HUVEC) were seeded in insert chambers with 3 micrometer pore size of multi-transwell plate for 6 hours at 37° C. in Endothelial Cell Basal Medium (EBM) supplemented with 0.1% bovine serum albumin. […] Images of 3 fields per insert were taken and the number of migrated cells per field were quantified using the ImageProPlus software. Data were analyzed for the average number of the migrated cells and standard deviation of six data points for each treatment condition. […] Statistic p values were computed using the Student's t-test.

[4] = system: Interferon-γ (IFN-γ); assay: Th1/Th2 Cytokine Profiling Assay: IFN-γ; type: cell-based, Balb/c mice; settings: 10 micrograms per ml; Ovalbumin-restimulated Balb/c spleen cells; 72 hours
Experimental: as §1

[5] = system: HUVEC; assay: Endothelial Tube Formation Assay; type: cell-based, human; settings: 10 micrograms per ml, 20 hours, combination peptide 1:peptide 2 0.95 mole:1.05 mole
Experimental: The endothelial tube formation assay is based on the ability of endothelial cells to form three-dimensional capillary-like tubular structures when cultured on a gel of basement membrane extract. The endothelial tube formation assay represents a powerful model for studying inhibition and induction of angiogenesis. […] Positive control was vehicle only. The endothelial cells were allowed to form tubes foe 20 hours and were then examined under an inverted fluorescent microscope. Duplicate wells for each treatment were photographed and quantitatevily analyzed for an average tubule length using image analysis software ImageProPlus. Raw data were expressed as average tubule lengths in pixels ±standard deviation. Statistic p values were computed using the Student's t-test.

[6] = system: Human Peripheral Blood Mononuclear Cells (PBMC), B cell proliferation; assay: B Cell Proliferation Assay (SAC plus Interleukin-2, 3H-thymidine); type: cell-based; settings: 10 micrograms per ml; SAC plus Interleukin-2 stimulated PBMC; combination: 0.95 mole peptide 1 and 1.05 mole peptide 2
Experimental: Human Peripheral Blood Mononuclear Cells (PBMC) were obtained from normal human donors. […] 10^5/well PBMC were plated in 96-well microtiter plates and assayed in duplicate with the peptides. […] At the end of incubation time, the plates were harvested and the cells counted by liquid scintillation for the incorporation of ^3H-thymidine as a measure of B cell proliferation.

[7] = system: Interleukin-4 (IL-4); assay: Th1/Th2 Cytokine Profiling Assay: IL-4; type: cell-based, Balb/c mice; settings: 10 micrograms per ml; Ovalbumin-restimulated Balb/c spleen cells; 72 hours
Experimental: as §1

[8] = system: Interleukin-2 (IL-2); assay: Th1/Th2 Cytokine Profiling Assay: IL-2; type: cell-based, Balb/c mice; settings: 10 micrograms per ml; Ovalbumin-restimulated Balb/c spleen cells; 72 hours
Experimental: as §1

[9] = system: Tumor Necrosis Factor-α (TNF-α); assay: Th1/Th2 Cytokine Profiling Assay: TNF-α; type: cell-based, Balb/c mice; settings: 10 micrograms per ml; Ovalbumin-restimulated Balb/c spleen cells; 72 hours
Experimental: as §1

[10] = system: HIV-1IIIB; assay: HIV-1 antiviral assay in CEM-SS cells; type: cell-based
[11] = system: hepatitis B virus (HBV) ayw strain; type: cell-based; settings: 10 micrograms per ml; HepG2-2.2.15 cells; six days

Compound	antiviral activity (positive control compound) ([1]; positive control, HCMV AD169)	IL-5 spleen cells; TH2 response (% of control) [2]	inhibition of the migration of human endothelial cells [3]	IFNγ spleen cells; TH1 response (% of control) [4]	inhibition of the tube formation of endothelial cells [5]	induction of the proliferation of specifically stimulated human B-cells [6]	IL-4 spleen cells; TH2 response (% of control) [7]	IL-2 spleen cells (% of control) [8]	TNF-a spleen cells; TH1 response (% of control) [9]	antiviral activity (positive control compounds) [10]	inhibition of HBV replication on tested liver cells [11]	inhibition of HCMV plaque formation as compared to the virus control ([1]; 10 micrograms per ml, 7-10 days)
Nc1nc(O)c2ncn(COC(CO)CO)c2n1 [Ganciclovir, reference compound]	expected levels of antiviral activity	–	–	–	–	–	–	–	–	–	–	–
[dF]HLLREVLE[Nle]ARAEQLAQEAHKNRKL[Nle]EII-NH2 (lactam 19-22) [Peptide 1]	–	90.1 % of control	13%	137.6 % of control	31%	11.1%	114.4 % of control	210.4 % of control	120.0 % of control	–	–	–
Cc1cn([C@H]2C[C@H](N=[N+]=[N-])[C@@H](CO)O2)c(=O)[nH]c1=O [AZT]	–	–	–	–	–	–	–	–	–	expected levels of antiviral activity	–	–
Tyr-Gly-Gly-Phe-Met-Thr-Ser-Glu-Lys-Ser-Gln-Thr-Pro-Leu-Val-Thr-Leu-Phe-Lys-Asn-Ala-Ile-Ile-Lys-Asn-Ala-Tyr-Lys-Lys-Gly-Glu-OH [Peptide 2]	–	103.3 % of control	29%	106.6 % of control	38%	22.7%	100.6 % of control	163.9 % of control	110.7 % of control	–	no effect	did not inhibit
CC(C)(C)NC(=O)[C@@H]1CN(Cc2cccnc2)CCN1C[C@@H](O)C[C@@H](Cc1ccccc1)C(=O)N[C@H]1c2ccccc2C[C@H]1O [indinavir]	–	–	–	–	–	–	–	–	–	expected levels of antiviral activity	–	–
